Reference: article PMC9021288 (Nature Communications, 2022)
Where “and” joins values, the source holds several entries; their conditions need not be identical. Equal entries are not always repeated. Where two headings read alike, the source gives them in different places.

Assays:
[1] = Human hepatocyte clearance (relay assay); conditions: human, hepatocytes
Excerpt: Briefly, cryopreserved human primary hepatocytes were thawed and cultured as described above.

[2] = system: P. falciparum field isolates from Uganda; assay: Ex vivo growth inhibition assay, Uganda field isolates; type: cell-based, Plasmodium falciparum; conditions: N = 230 isolates
Procedure: An ex vivo growth inhibition assay was performed on fresh clinical P. falciparum isolates in Uganda. […] Parasite density was quantified by fluorescence after incubation with SYBR Green lysis buffer measured on a BMG Fluostar Optima plate reader, as previously described.

P. falciparum Dd2-B2 = assay: 72-h flow cytometry IC50 assay, Dd2-B2 and resistant Dd2-B2; type: cell-based, Plasmodium falciparum
Procedure: Replication assays were performed using a SYBR Green method as described previously. Briefly, asynchronous parasites were diluted to 0.83% parasitemia, 3% hematocrit in 30 µl medium, and added to 30 µl of diluted compounds in medium (0.1% DMSO final concentration) in black 384-wells plates. After a 72-h incubation, 30 µl of SYBR Green diluted in lysis buffer was added according to the manufacturer’s protocol (Life Technologies). Fluorescence intensity was measured on a BioTek Synergy 2 Plate Reader after 1-h incubation and was normalized to a DMSO control (100% growth) and DHA- or epoxomicin-treatment (no growth). […] Parasite survival was assessed by flow cytometry on an Accuri C6 (BD Biosciences) with BD C6 Plus software using SYBR Green and MitoTracker Deep Red FM (Life Technologies) as nuclear stain and vital dye, respectively, and data were analyzed using FlowJo (10.5.0). […] Luminescence was measured after 72 h using the Renilla-Glo(R) Luciferase Assay System (Promega E2750) and the GlomAX® Discover Multimode Microplate Reader (Promega). The luminescence values were normalized to DMSO vehicle (100% growth) and 200 nM chloroquine-treated (no growth) samples as controls.

Pharmacokinetics in rats = type: in vivo, Sprague Dawley rats
Procedure: (§1) Subsequently, samples were spun down at 1640 g for 5-10 min at 4 °C within 30 min after collection and plasma was collected. […] Urine was collected following an intravenous dose in both rat and dog, allowing renal clearance to be estimated. Human renal clearance was estimated from dog renal clearance as previously described[40] and other human PK parameters were predicted using allometric scaling and/or in vitro clearance data. PK parameters were calculated by naïve pooled approach using WinNonLin software (Phoenix, version 6.3).

[3] = Human PK prediction (allometry, in vitro clearance, GastroPlus)
Procedure: as §1, with “A blood sample from the saphenous vein was collected into heparinized capillary tubes at multiple intervals between 0.25 and 24 h after dosing. Subsequently,” for “Subsequently,”

Caco-2 = Caco-2 permeability assay; conditions: pH 7.4/7.4
[4] = Blood to plasma ratio, rat
[5] = Blood to plasma ratio, human
[6] = Plasma protein binding, mouse
[7] = Plasma protein binding, human

## C[C@@H](CNC(=O)[C@H](O)C(C)(C)CO)NC(=O)c1cc(C#N)ccc1F [MMV693182]
[1]
  hepatocyte CLint: 0.2 µL/min/1e6 cells

## C[C@@H](CNC(=O)[C@H](O)C(C)(C)CO)NC(=O)c1cc(F)c(F)cc1F [MMV693183]
[2]; read-out: IC50 maximum
  IC50: 11 nM
[2]; read-out: IC50 minimum
  IC50: 0.3 nM
P. falciparum Dd2-B2; 1x10^9 Dd2-B2 selected at 12-27 nM
  IC50 shift: 13 x
P. falciparum Dd2-B2; Dd2-B2, Log concentration (M) -8.61866
  Parasite growth, dose-response (No drug = 100): 46.9671 and 65.9341 and 69.186 and 60.7743
P. falciparum Dd2-B2; Dd2-B2, Log concentration (M) -8.91969
  Parasite growth, dose-response (No drug = 100): 65.3709 and 69.9634 and 65.2132 and 74.7261
P. falciparum Dd2-B2; Dd2-B2, Log concentration (M) -9.22072
  Parasite growth, dose-response (No drug = 100): 72.0216 and 80.9524 and 81.3953 and 76.7714
P. falciparum Dd2-B2; Dd2-B2, Log concentration (M) -9.52175
  Parasite growth, dose-response (No drug = 100): 91.6867 and 88.6447 and 91.0853 and 95.8364
P. falciparum Dd2-B2; Dd2-B2, Log concentration (M) -9.82278
  Parasite growth, dose-response (No drug = 100): 93.0054 and 90.8425 and 98.7403 and 95.3251
P. falciparum Dd2-B2; Dd2-B2, read-out: IC50
  IC50: 1.79 nM and 2.73 nM and 3.55 nM and 3.05 nM
P. falciparum Dd2-B2; Dd2-B2, read-out: mean IC50
  IC50: 3 nM
P. falciparum Dd2-B2; FL1, Log concentration (M) -7.11351
  Parasite growth, dose-response (No drug = 100): 0
P. falciparum Dd2-B2; FL1, Log concentration (M) -7.41454
  Parasite growth, dose-response (No drug = 100): 70.2458 and 55.9122
P. falciparum Dd2-B2; FL1, Log concentration (M) -7.71557
  Parasite growth, dose-response (No drug = 100): 80.5951 and 111.824
P. falciparum Dd2-B2; FL1, Log concentration (M) -8.0166
  Parasite growth, dose-response (No drug = 100): 100 and 101.689
P. falciparum Dd2-B2; FL1, Log concentration (M) -8.31763
  Parasite growth, dose-response (No drug = 100): 93.5317 and 96.6216
P. falciparum Dd2-B2; FL1, Log concentration (M) -8.61866
  Parasite growth, dose-response (No drug = 100): 96.119 and 101.689
P. falciparum Dd2-B2; FL1, Log concentration (M) -8.91969
  Parasite growth, dose-response (No drug = 100): 78.0078 and 118.581
P. falciparum Dd2-B2; FL1, Log concentration (M) -9.22072
  Parasite growth, dose-response (No drug = 100): 94.8254 and 105.068
P. falciparum Dd2-B2; FL1, Log concentration (M) -9.52175
  Parasite growth, dose-response (No drug = 100): 101.294 and 83.1081
P. falciparum Dd2-B2; FL1, Log concentration (M) -9.82278
  Parasite growth, dose-response (No drug = 100): 85.7697 and 115.203
P. falciparum Dd2-B2; FL1, read-out: IC50
  IC50: 44.2 nM and 38.8 nM
P. falciparum Dd2-B2; FL2, Log concentration (M) -7.11351
  Parasite growth, dose-response (No drug = 100): 0
P. falciparum Dd2-B2; FL2, Log concentration (M) -7.41454
  Parasite growth, dose-response (No drug = 100): 60.4288 and 62.4542
P. falciparum Dd2-B2; FL2, Log concentration (M) -7.71557
  Parasite growth, dose-response (No drug = 100): 82.846 and 84.7985
P. falciparum Dd2-B2; FL2, Log concentration (M) -8.0166
  Parasite growth, dose-response (No drug = 100): 96.8811 and 77.6557
P. falciparum Dd2-B2; FL2, Log concentration (M) -8.31763
  Parasite growth, dose-response (No drug = 100): 88.499 and 88.6447
P. falciparum Dd2-B2; FL2, Log concentration (M) -8.61866
  Parasite growth, dose-response (No drug = 100): 105.458 and 84.9817
P. falciparum Dd2-B2; FL2, Log concentration (M) -8.91969
  Parasite growth, dose-response (No drug = 100): 80.5068 and 77.1062
P. falciparum Dd2-B2; FL2, Log concentration (M) -9.22072
  Parasite growth, dose-response (No drug = 100): 101.365 and 80.4029
P. falciparum Dd2-B2; FL2, Log concentration (M) -9.52175
  Parasite growth, dose-response (No drug = 100): 71.345 and 104.029
P. falciparum Dd2-B2; FL2, Log concentration (M) -9.82278
  Parasite growth, dose-response (No drug = 100): 92.0078 and 88.4615
P. falciparum Dd2-B2; FL2, read-out: IC50
  IC50: 40.7 nM and 41.7 nM
P. falciparum Dd2-B2; FL3, Log concentration (M) -7.11351
  Parasite growth, dose-response (No drug = 100): 0
P. falciparum Dd2-B2; FL3, Log concentration (M) -7.41454
  Parasite growth, dose-response (No drug = 100): 54.4365 and 48.2063
P. falciparum Dd2-B2; FL3, Log concentration (M) -7.71557
  Parasite growth, dose-response (No drug = 100): 83.9329 and 95.9641
P. falciparum Dd2-B2; FL3, Log concentration (M) -8.0166
  Parasite growth, dose-response (No drug = 100): 96.6427 and 92.1525
P. falciparum Dd2-B2; FL3, Log concentration (M) -8.31763
  Parasite growth, dose-response (No drug = 100): 96.6427 and 93.0493
P. falciparum Dd2-B2; FL3, Log concentration (M) -8.61866
  Parasite growth, dose-response (No drug = 100): 96.1631 and 96.6368
P. falciparum Dd2-B2; FL3, Log concentration (M) -8.91969
  Parasite growth, dose-response (No drug = 100): 103.118 and 89.9103
P. falciparum Dd2-B2; FL3, Log concentration (M) -9.22072
  Parasite growth, dose-response (No drug = 100): 91.1271 and 102.466
P. falciparum Dd2-B2; FL3, Log concentration (M) -9.52175
  Parasite growth, dose-response (No drug = 100): 106.954 and 82.7354
P. falciparum Dd2-B2; FL3, Log concentration (M) -9.82278
  Parasite growth, dose-response (No drug = 100): 109.113 and 91.4798
P. falciparum Dd2-B2; FL3, read-out: IC50
  IC50: 38.2 nM and 37.9 nM
Pharmacokinetics in rats; Rat
  Observed hepatic/ predicted hepatic: 1.0
  Observed total-renal = observed hepatic: 13.5 mL/min/kg
  Predicted hepatic plasma clearance: 13.3 mL/min/kg
Pharmacokinetics in rats; Rat, Time (hrs) 0
  Norm. conc i.v.: 0 ng/mL
  Norm. conc p.o.: 0 ng/mL
Pharmacokinetics in rats; Rat, Time (hrs) 0.083333
  Norm. conc i.v.: 1040 ng/mL and 843.333 ng/mL
Pharmacokinetics in rats; Rat, Time (hrs) 0.25
  Norm. conc i.v.: 746.667 ng/mL and 613.333 ng/mL and 566.667 ng/mL
  Norm. conc p.o.: 726.667 ng/mL and 573.333 ng/mL and 746.667 ng/mL
Pharmacokinetics in rats; Rat, Time (hrs) 0.5
  Norm. conc i.v.: 490 ng/mL and 406.667 ng/mL and 376.667 ng/mL
  Norm. conc p.o.: 686.667 ng/mL and 511.333 ng/mL and 591.333 ng/mL
Pharmacokinetics in rats; Rat, Time (hrs) 1
  Norm. conc i.v.: 217.333 ng/mL and 175 ng/mL and 167 ng/mL
  Norm. conc p.o.: 380.667 ng/mL and 303.333 ng/mL and 362 ng/mL
Pharmacokinetics in rats; Rat, Time (hrs) 2
  Norm. conc i.v.: 53.3333 ng/mL and 56.3333 ng/mL and 51.6667 ng/mL
Pharmacokinetics in rats; Rat, Time (hrs) 4
  Norm. conc i.v.: 21.4 ng/mL and 17.9 ng/mL and 18.1 ng/mL
  Norm. conc p.o.: 22.4667 ng/mL and 18.8 ng/mL and 29.5 ng/mL
Pharmacokinetics in rats; Rat, Time (hrs) 8
  Norm. conc p.o.: 12.2 ng/mL and 7.667 ng/mL and 10.6333 ng/mL
Pharmacokinetics in rats; i.v. 3 mg/kg, mean
  AUC0-∞: 2398.4 ng·h/mL
  AUClast: 2394.8 ng·h/mL
  C0: 3245.1 ng/mL
  Kel: 0.22 h⁻¹
  Vss_obs: 1.9624 L/kg
Pharmacokinetics in rats; i.v. 3 mg/kg, mean, 3 mg/kg
  CLtotal: 21.1 mL/min/kg and 21.14 mL/min/kg and 21 mL/min/kg
  T1/2: 3.1 h and 3.13 h
Pharmacokinetics in rats; p.o. 30 mg/kg, mean
  AUC0-∞: 29077.1 ng·h/mL
  AUClast: 29063.9 ng·h/mL
  CLtotal: 17.57 mL/min/kg
  Cmax: 20466.7 ng/mL
  Kel: 0.27 h⁻¹
  T1/2: 2.57 h
  Tmax: 0.25 h
Pharmacokinetics in rats; p.o. 30 mg/kg, mean, 30 mg/kg
  %F: 121% and 121.24%
[3]
  biopharmaceutical classification system class: class I
[3]; allometry with MLP correction
  estimated human total clearance: 1.8 mL/min/kg
[3]; human predicted
  CL, total: 1.11 mL/min/kg
  V1: 0.843 L/kg
  V2: 1.97 L/kg
  Vss: 2.81 L/kg
  half-life: 32.4 h
[3]; human predicted from dog renal clearance
  CL, renal: 0.60 mL/min/kg
[3]; human predicted from in vitro hepatocyte clearance
  CL, hepatic: 0.51 mL/min/kg
[3]; simple allometry
  allometric clearance exponent: 0.967
Caco-2
  Average Papp A to B: 2.9e-06 s⁻¹
  Average Papp B to A: 1.35e-05 s⁻¹
  Efflux ratio: 4.7
[4]
  B:P: 0.91
[5]
  B:P: 0.97
[6]
  plasma protein binding: 33%
[7]
  plasma protein binding: 52%
